Laboratory results as given in patent US20070275368A1, “Posh Associated Kinases And Related Methods” (PROTEOLOGICS, LTD., priority 2003, published 2007).

Key:
HIV-1 [1] = settings: H89 50 μM, HeLa SS6 cells transfected with pNLenv-1, 20 minutes after shift to 37° C.
Description: HeLa SS6 cells were transfected with pNLenv-1PTAP or pNLenv-1ATAA (L-domain mutant). Eighteen hours post-transfection, cells were transferred to 20° C. for two hours in order to inhibit transport of viral particles from the trans-Golgi (TGN) to the plasma membrane (PM). Subsequently, the PKA inhibitor, H89 (50 μM) (Biosource, Cat. No. PHZ1114) or DMSO were added to the cells and dishes were transferred to 37° C. to initiate transport from the TGN to the PM. Reverse transcriptase activity was assayed from virus-like-particles collected from cell supernatant twenty minutes later.
For transfections, HeLa SS6 cells were grown to 100% confluency in DMEM containing 10% FCS without antibiotics. Cells were then transfected with HIV-1NLenv1 (2 μg per 6-well) (Schubert et al., 1995).
Virus and virus-like particle (VLP) release by reverse transcriptase activity was determined one day after transfection with the pro-viral DNA as previously described (Adachi et al., 1986; Fukumori et al., 2000; Lenardo et al., 2002). The culture medium of virus-expressing cells was collected and centrifuged at 500×g for 10 minutes. The resulting supernatant was passed through a 0.45 μm-pore filter and the filtrate was centrifuged at 14,000×g for 2 hours at 4° C. […]

HIV-1 [2] = settings: Cartier et al., 2003; cited from earlier work
[3] = test system: T1, Bacterially expressed recombinant maltose-binding-protein (MBP)-hPOSH
T1 sequence: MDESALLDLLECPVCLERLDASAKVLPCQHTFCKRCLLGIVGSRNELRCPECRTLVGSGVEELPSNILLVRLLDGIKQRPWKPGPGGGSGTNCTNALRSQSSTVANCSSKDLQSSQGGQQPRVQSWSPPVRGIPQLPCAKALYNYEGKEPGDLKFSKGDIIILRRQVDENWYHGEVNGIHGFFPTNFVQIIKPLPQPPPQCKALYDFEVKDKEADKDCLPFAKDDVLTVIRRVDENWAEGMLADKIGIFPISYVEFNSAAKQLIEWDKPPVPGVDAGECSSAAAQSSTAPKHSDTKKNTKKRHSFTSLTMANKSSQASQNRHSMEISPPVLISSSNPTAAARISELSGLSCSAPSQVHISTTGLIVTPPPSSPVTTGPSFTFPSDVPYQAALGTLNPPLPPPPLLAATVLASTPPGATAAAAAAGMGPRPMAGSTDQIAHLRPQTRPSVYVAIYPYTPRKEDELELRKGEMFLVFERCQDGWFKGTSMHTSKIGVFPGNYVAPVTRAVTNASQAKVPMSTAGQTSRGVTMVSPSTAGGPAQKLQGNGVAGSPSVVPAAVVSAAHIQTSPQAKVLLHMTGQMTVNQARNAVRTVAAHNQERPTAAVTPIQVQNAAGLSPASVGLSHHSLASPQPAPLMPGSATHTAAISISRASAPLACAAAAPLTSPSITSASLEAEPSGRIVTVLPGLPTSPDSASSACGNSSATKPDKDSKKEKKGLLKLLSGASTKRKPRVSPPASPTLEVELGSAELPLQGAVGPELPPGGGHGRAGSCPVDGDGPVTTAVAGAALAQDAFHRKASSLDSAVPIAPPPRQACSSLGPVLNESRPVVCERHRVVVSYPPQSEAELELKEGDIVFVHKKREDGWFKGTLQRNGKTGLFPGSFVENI

Molecule	inhibition of RT activity of virus-like-particles collected from cell supernatant (HIV-1 [1])	block of HIV-1 release from cells (HIV-1 [2])	phosphorylation of hPOSH (immunoblot with PKA-substrate phospho-specific antibody) [3]
O=S(=O)(NCCNCC=Cc1ccc(Br)cc1)c1cccc2cnccc12 [H89, N-[2-((Pbromocinnamyl)amino)ethyl]isoquinolinesulfonamide]	complete inhibition	able to block HIV-1 release from cells	–
PKA catalytic subunit (PKAc)	–	–	POSH is phosphorylated by PKA
